{"source": "patent US20250313563A1", "about": "“GLYCOGEN SYNTHASE KINASE 3 INHIBITORS AND USES THEREOF” (The Broad Institute, Inc., priority 2022, published 2025)", "key": {"NanoLuc-GSK3α": {"biological_target": "NanoLuc-GSK3α (Homo sapiens (Human), UniProt P49840)", "sequence (P49840 whole entry)": "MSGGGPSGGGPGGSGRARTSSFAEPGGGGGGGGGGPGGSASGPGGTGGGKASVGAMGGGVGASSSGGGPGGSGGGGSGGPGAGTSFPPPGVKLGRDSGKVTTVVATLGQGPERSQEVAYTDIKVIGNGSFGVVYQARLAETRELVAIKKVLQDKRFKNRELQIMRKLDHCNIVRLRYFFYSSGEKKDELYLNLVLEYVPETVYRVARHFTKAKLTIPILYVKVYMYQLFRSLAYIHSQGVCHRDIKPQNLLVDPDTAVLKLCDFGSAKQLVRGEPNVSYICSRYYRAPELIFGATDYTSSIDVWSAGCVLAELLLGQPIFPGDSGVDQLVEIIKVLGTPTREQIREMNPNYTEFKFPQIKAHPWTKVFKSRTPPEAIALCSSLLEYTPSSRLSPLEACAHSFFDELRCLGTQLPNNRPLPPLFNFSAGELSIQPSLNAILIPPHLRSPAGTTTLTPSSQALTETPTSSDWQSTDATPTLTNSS", "assay": "NanoBRET residence time, GSK3α", "assay_type": "cell-based", "settings": "inhibitor at 10× IC50, BRET every 5 min for 3 hours"}, "GSK3β": {"biological_target": "GSK3β (Rattus norvegicus (Rat), UniProt P18266)", "sequence (P18266 whole entry)": "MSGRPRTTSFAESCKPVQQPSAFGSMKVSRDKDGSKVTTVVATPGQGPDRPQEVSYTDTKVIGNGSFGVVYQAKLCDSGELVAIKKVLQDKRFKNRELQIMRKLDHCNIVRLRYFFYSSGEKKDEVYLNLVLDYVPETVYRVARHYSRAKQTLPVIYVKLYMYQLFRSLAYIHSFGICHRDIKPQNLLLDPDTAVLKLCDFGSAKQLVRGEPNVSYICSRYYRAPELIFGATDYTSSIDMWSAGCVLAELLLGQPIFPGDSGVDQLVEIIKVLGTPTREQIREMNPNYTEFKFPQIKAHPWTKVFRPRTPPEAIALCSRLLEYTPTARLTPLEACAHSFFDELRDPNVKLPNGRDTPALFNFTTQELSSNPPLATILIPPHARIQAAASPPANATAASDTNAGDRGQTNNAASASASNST", "assay": "In vivo target engagement assay (chemoproteomics, kinobeads), GSK3β", "settings": "P10 rat cortex", "method": "(§1) Chemoproteomics competition was used to evaluate inhibitor selectivity and target engagement in vivo. Frozen cortexes were prepared for homogenization with 1.2 mL of Lysis Buffer (50 mM Tris-HCl, 0.8% NP-40 ((octylphenoxy poly(ethyleneoxy) ethanol)), 5% glycerol, 150 mM NaCl, 1.5 mM MgCl2, 25 mM NaF, 1 mM sodium vanadate, 1 mM DTT, pH 7.5 and supplemented with protease inhibitors). Tissues were homogenized in FastPrep-24 5G instrument at maximum oscillations for 20 seconds. The resulting brain homogenate was clarified by centrifugation for 1 h at 145 000 g, 4° C. The protein concentration of the supernatant was determined by BCA assay and each sample was diluted to final concentration of 5 mg/mL with lysis buffer. […] The dry peptide mixture was reconstituted in 15 μL of 0.1% trifluoro acetic acid and analyzed on ID nanoLC-MS/MS platform using a standardized 140 min method. Peptides were separated on an Easy-Spray column (75 μm×50 cm, PepMAP C18, 1.9 μm) at 250 nL/min, analyzed on a QExactive HF mass spectrometer at data dependent acquisition (DDA) mode with MS1 at 60,000 and MS2 at 15,000 resolution, respectively. […]\nTo measure direct target engagement of the compound for both GSK3α and GSK3β competitive chemoproteomics methodology was used. […] Enriched proteins were analyzed by liquid chromatography coupled with tandem mass spectrometry. […]"}, "GSK3α [1]": {"biological_target": "T1, GSK3α (Homo sapiens (Human), UniProt P49840)", "T1 sequence (P49840 whole entry)": "as the sequence (P49840 whole entry) above", "assay": "AT8 (pS202/pThr205) tau phosphorylation FRET assay, GSK3α-transfected cells", "assay_type": "cell-based", "settings": "GSK3α and GSK3β transfected cells", "experimental": "For AT8 assay: FRET antibodies (Custom designed Cisbio assay kit; S202/T205 Tb and total Tau D2 FRET antibodies) were added to lysate in a 384 well assay plate at 1:4 ratio (antibody/lysate). After antibody addition, the plate was left at room temperature for 60 minutes incubation time. Plate was read with appropriate wavelength settings using an Envision plate reader (ex320 and em620 and em665)."}, "[2]": {"tested_on": "251 unique detected kinases in rat brain", "assay": "In vivo kinome selectivity (chemoproteomics, kinobeads)", "settings": "60 mg/kg", "method": "as §1\nTo investigate whether the effects of 837646 on tau phosphorylation were solely the result of GSK3 inhibition, additional kinases detected by mass spectrometry for compound engagement in the same brain lysates were profiled. […]"}, "NanoLuc-GSK3β": {"biological_target": "NanoLuc-GSK3β (Homo sapiens (Human), UniProt P49841)", "sequence (P49841 whole entry)": "as the sequence (P18266 whole entry) above, with M240V, P390T, A392T, T400A, A402T counted along it", "assay": "NanoBRET residence time, GSK3β", "assay_type": "cell-based", "settings": "inhibitor at 10× IC50, BRET every 5 min for 3 hours"}, "GSK3α [3]": {"biological_target": "T1, GSK3α", "assay": "pThr231 tau phosphorylation plate-based assay in HEK-huTau cells transfected with GSK3α", "assay_type": "cell-based", "settings": "HEK-huTau cells transfected with human GSK3α; 10-point dose response, 2 hours; read-out: GSK3α IC50 (inhibition of pThr231)", "method": "HEK293 or SH-SY5Y cells were obtained from American Type Culture Collection (ATCC, Manassas, VA) and cultured in Dulbecco's modified Eagle's medium (DMEM) supplemented with 10% fetal bovine serum (FBS), 10 units/ml penicillin, and 10 μg/ml streptomycin (all reagents were purchased from Gibco, Waltham, MA). Cell cultures were maintained in a humidified 5% (v/v) CO2/air environment at 37° C. When the cells reached 50-80% confluence, they were transfected with a complex consisting of a 3:1 ratio of FuGENE 6 Transfection Reagent (Promega, Madison, WI) and plasmid DNA. Plasmid DNA was balanced out across reactions using an empty plasmid so that the same amount of DNA was added per well. This transfection complex was prepared following the manufacturers protocol and added directly to the cell media for 24 or 48 hours prior to lysis.\n293T cells stably expressing human 2N4R Tau were transfected with appropriate cDNA plasmids. 24 hours following transfection cells were treated with compound in a 10-point dose-response (from 1000× stocks of compound) and lysates harvested 2 hours later with cell extraction buffer (Life Technologies Cat #BN0001) or RIPA Buffer with Halt protease/phosphatase inhibitors added.\nFor pThr231 assay: Lysate was diluted 1:100 in assay buffer and Total Tau and pTau T231 was assessed by plate-based ELISA as per manufacturer instructions (MSD Cat #K15121D-1). Total fluorescence was measured using an Envison plate reader.\nTo test the potency and isoform selectivity of GSK3 small molecule inhibitors, HEK-huTau cells were transfected with plasmids containing either human GSK3α or GSK3β. Twenty-four hours after transfection, compounds were added at a 10-point dose response curve (at a range of 30 μM-3 nM) for a total of 2 hours, and cell lysates were probed for total tau and pThr231 using a plate-based assay."}}, "data": [{"smiles": "CCC1(c2cccc(C(F)(F)F)c2)C2=C(Nc3n[nH]cc31)C(F)C(C)(C)CC2=O", "note": "(single isomer, unassigned) [Compound 837646, 4-ethyl-8-fluoro-7,7-dimethyl-4-(3-(trifluoromethyl)phenyl)-2,4,6,7,8,9-hexahydro-5H-pyrazolo[3,4-b]quinolin-5-one]", "values": [{"measurement": "residence time at GSK3α", "setting": "NanoLuc-GSK3α", "value": "no difference in the residence time"}, {"measurement": "binding to GSK3β, 24 hr", "setting": "GSK3β; 24 hr", "value": "no significant binding detected"}, {"measurement": "target engagement for GSK3β, 3 hours", "setting": "GSK3β; three hours after dosing (Cmax, 60 mg/kg)", "value": 40, "unit": "%"}, {"measurement": "relative cellular potency and paralog selectivity at pS202/pThr205 (AT8) compared with pThr231 assay", "setting": "GSK3α [1]", "value": "similar"}, {"measurement": "number of off-target kinases with target engagement greater than 70%", "setting": "[2]; Cmax, of 251 unique kinases, apart from GSK3", "value": 6}, {"measurement": "number of kinases with target engagement greater than 70% (including GSK3α)", "setting": "[2]; out of 251 unique detected kinases", "value": 7}, {"measurement": "residence time at GSK3β", "setting": "NanoLuc-GSK3β", "value": "no difference in the residence time"}, {"measurement": "IC50", "setting": "GSK3α [3]", "value": 150, "unit": "nM"}]}]}
